# Assays:
# [1] = tested on: colonic epithelial TJs, AJs and actin cytoskeleton; experiment: Immunofluorescence of TJ and AJ proteins and F-actin in mouse intestine after total body irradiation (4 Gy); assay type: in vivo; details: 20 mM NAC in liquid diet for 5 days prior to TBI 4 Gy, 2 hours post irradiation
# Method: (§1) In the first study, adult female (12-14 week's age) mice were subjected to total body irradiation (4 Gy). At 2-24 hours post-irradiation (IR), the integrity of colonic epithelial TJs, AJs and actin cytoskeleton was examined. In a second study, mice were randomized to four groups: Sham (control), IR, NAC and NAC+IR, and fed a liquid diet with (NAC and NAC+IR) or without (Sham and IR) 20 mM NAC for 5 days prior to irradiation. IR and NAC+IR mice were subjected to total body irradiation (4 Gy), while Sham and NAC mice were sham-treated. At 2 hours post-irradiation, colon and ileum were collected and examined for oxidative stress and epithelial junctional integrity. At the end of experiment, gut permeability was measured as described below. Colon and ileum segments were stored frozen for further analyses.
# Cryo-sections of colon (10 μm thickness) and ileum (12 μm thickness) were fixed in acetone methanol mixture (1:1) at […] for 2 min and rehydrated in phosphate buffered saline (PBS). Sections were permeabilized with 0.5% Triton X-100 in PBS for 15 min and blocked in 4% non-fat milk in TBST (20 mM Tris, pH 7.2 and 150 mM NaCl). It was then incubated for one hour with primary antibodies (mouse monoclonal anti-occludin and rabbit polyclonal anti-ZO-1 antibodies or mouse monoclonal E-cadherin and rabbit polyclonal anti-β-catenin antibodies), followed by incubation for one hour with secondary antibodies (AlexaFluor-488-conjugated anti-mouse IgG and Cy3-conjugated anti-rabbit IgG antibodies from Molecular Probes, Eugene, Oreg.) containing Hoechst 33342. The fluorescence was examined by using a confocal microscope (Zeiss 710) and images from x-y sections (1 μm) were collected using Zen software. Images were stacked using the Image J software (NIH) and processed by Adobe Photoshop (Adobe Systems Inc., San Jose, Calif.).
# Studies were performed to evaluate the effect of RP-1 on radiation-induced redistribution of TJ and AJ proteins in mouse colon in vivo. Mice were subjected to TBI (4 Gy); in some groups, animals received a one-time injection of RP-1 (0.1 mg/kg) 30 min prior to IRR. At 2 hours post-IRR, cryosections of colon were stained for TJ and AJ proteins, images collected by confocal microscopy and fluorescence measured by densitometric analysis.
# [2] = tested on: detergent-insoluble fractions of TJ and AJ proteins; experiment: Immunoblot of TJ and AJ proteins in detergent-insoluble fraction of distal colonic mucosa after total body irradiation; assay type: in vivo, mouse; details: 20 mM NAC in liquid diet for 5 days prior to TBI 4 Gy, 2 hours post irradiation
# Method: as §1, with “Colon and ileum segments were stored frozen for further analyses.” left out
# Actin-rich detergent-insoluble fraction was prepared as described previously (Elias, B. C.; Suzuki, T.; Seth, A.; Giorgianni, F.; Kale, G.; Shen, L.; Turner, J. R.; Naren, A.; Desiderio, D. M.; Rao, R. Phosphorylation of Tyr-398 and Tyr-402 in occludin prevents its interaction with ZO-1 and destabilizes its assembly at the tight junctions. J Biol Chem 284:1559-1569; 2009; Kale, G.; Naren, A. P.; Sheth, P.; Rao, R. K. Tyrosine phosphorylation of occludin attenuates its interactions with ZO-1, ZO-2, and ZO-3. Biochem Biophys Res Commun 302:324-329; 2003.). […] Protein content was measured by BCA method (Pierce Biotechnology, Rockford, Ill.). […]
# [3] = tested on: intestinal mucosal barrier function; experiment: Gut permeability in vivo, vascular-to-luminal flux of FITC-inulin after total body irradiation; set-up: species or system mouse
# Method: as §1, with “analyses. Mucosal barrier dysfunction was evaluated by measuring gut permeability to FITC-inulin (6 kDa). On the last day of experiment, mice were intravenously injected with FITC-inulin (50 mg/ml solution; 2 μl/g body weight) via tail vein. One hour after injection, blood samples were collected by cardiac puncture under isoflurane anesthesia for plasma preparation. Luminal contents from colon and ileum were flushed with 0.9% saline. Fluorescence in plasma and luminal flushing was measured using fluorescence plate reader. Fluorescence values in the luminal flushing were normalized to fluorescence values in corresponding plasma samples and calculated as percent of amount injected.” for “analyses.”
# colonic loops = experiment: Inulin absorption from the lumen of isolated colonic loops of irradiated mice; assay type: in vivo, mouse; details: loops prepared 3 hours post irradiation from NAC-fed, incubated 75 min
# Method: At 3 hours post irradiation, colonic loops were prepared and filled with 0.15 ml of 0.9% saline containing FITC-inulin (0.05 mg/ml) and incubated for 75 min in an incubator. Luminal contents were measured for fluorescence to evaluate inulin absorption from colonic lumen.
# [4] = tested on: reduced and oxidized protein thiols; experiment: Protein thiol assay in colon and ileum after total body irradiation; assay type: in vivo, mouse; details: TBI 4 Gy, 2 hours post irradiation
# Method: as §1, with “analyses. Protein thiols in colonic sections were assessed as described before. Reduced protein thiols were evaluated by staining cryosections colon with BODIPY FL-N-(2-aminoethyl) maleimide (Flm) and confocal microscopy at excitation and emission wavelengths, 490 nm and 534 nm, respectively. For oxidized protein thiols, the reduced protein thiol was first alkylated with N-ethylmaleimide followed by reduction of oxidized protein thiols with tris (2-carboxyethyl) phosphine prior to staining with Flm. […] Fluorescence images collected and fluorescence quantitated by Image J software.” for “analyses.”
# Caco-2 cell monolayers = experiment: Radiation-induced redistribution of TJ proteins in Caco-2 cell monolayers; assay type: cell-based; details: NAC 10 mM pretreatment for one hour, radiation 4 Gy
# Method: Therefore, we evaluated the effect of radiation on barrier function and TJ proteins in Caco-2 and m-ICC12 cell monolayers in vitro. Barrier function was evaluated by measuring transepithelial electrical resistance (TER) and transepithelial flux of FITC-inulin in cell monolayers grown on transwell inserts. Cell monolayers were also fixed and stained for occludin and ZO-1 for confocal microscopy.
# The effect of LPA was also tested in m-ICC12 cells at varying doses of radiation. LPA blocked IRR-induced redistribution of ZO-1 (FIG. 14C). […] These models can be used for further mechanistic studies.
compound,measurement,setting,value
"CC(=O)N[C@@H](CS)C(=O)O [NAC, N-acetyl L-cysteine]",radiation-induced redistribution of Cldn-3,[1]; colon and ileum,blocked
same,radiation-induced redistribution of E-cadherin and β-catenin from the intercellular junctions,[1]; colon and ileum,absent
same,radiation-induced redistribution of occludin and ZO-1 from the intercellular junctions,[1]; colon and ileum,almost a complete attenuation
same,"radiation-induced loss of F-actin (actin cytoskeleton), colon",[1]; colon,almost complete
same,"radiation-induced loss of F-actin (actin cytoskeleton), ileum",[1]; ileum,only partially protected
same,radiation-induced loss of detergent-insoluble fractions of TJ and AJ proteins,[2],blocked
same,"mucosal permeability in colon or ileum, NAC by itself","[3]; NAC-fed, sham-treated mice (no irradiation)",no significant influence
same,radiation-induced increase in colonic mucosal permeability to FITC-inulin,"[3]; colon, 20 mM NAC in liquid diet for 5 days prior to TBI 4 Gy, in vivo flux",effectively attenuated
same,radiation-induced increase in inulin permeability in the ileum,"[3]; ileum, NAC supplementation in diet prior to TBI 4 Gy, in vivo flux",blocked
same,radiation-induced increase in inulin absorbed from the lumen of colonic loops,colonic loops,absent
same,radiation-induced decrease in stain for reduced protein thiols and increase in stain for oxidized protein thiols,"[4]; NAC fed mice, confocal images",absent
same,"radiation-induced conversion of reduced protein thiols into oxidized protein thiols, densitometric analysis of fluorescence",[4]; NAC feeding,attenuates
same,radiation-induced loss of junctional occludin and ZO-1,Caco-2 cell monolayers,significantly blocked
